According to PMC4977651, “Molecular features of biguanides required for targeting of mitochondrial respiratory complex I and activation of AMP-kinase” (BMC Biology, 2016):

Key:
[1] = biological target: isolated bovine heart complex I (Bos taurus, UniProt P03887+P03898+P17694+P42026); test: NADH:decylubiquinone oxidoreduction by isolated complex I; type: biochemical; conditions: bovine heart purified mitochondrial complex I; for HillSlope (best fit value) / LogIC50 (best fit value): Prism fit; for HillSlope (best fit value): no std. error; for IC50: Prism log(inhibitor) vs. response fit, Bottom 0, Top 100, read-out: IC50 (best fit value); for LogIC50 (best fit value): log of IC50 in mM
Sequence of isolated bovine heart complex I (P42026 38-216): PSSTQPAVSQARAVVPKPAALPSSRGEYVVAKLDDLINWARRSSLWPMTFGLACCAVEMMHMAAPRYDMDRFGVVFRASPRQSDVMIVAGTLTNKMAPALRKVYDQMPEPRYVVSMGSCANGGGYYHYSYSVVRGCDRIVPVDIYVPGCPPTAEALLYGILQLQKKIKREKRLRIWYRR
Sequence of isolated bovine heart complex I (P17694 34-463): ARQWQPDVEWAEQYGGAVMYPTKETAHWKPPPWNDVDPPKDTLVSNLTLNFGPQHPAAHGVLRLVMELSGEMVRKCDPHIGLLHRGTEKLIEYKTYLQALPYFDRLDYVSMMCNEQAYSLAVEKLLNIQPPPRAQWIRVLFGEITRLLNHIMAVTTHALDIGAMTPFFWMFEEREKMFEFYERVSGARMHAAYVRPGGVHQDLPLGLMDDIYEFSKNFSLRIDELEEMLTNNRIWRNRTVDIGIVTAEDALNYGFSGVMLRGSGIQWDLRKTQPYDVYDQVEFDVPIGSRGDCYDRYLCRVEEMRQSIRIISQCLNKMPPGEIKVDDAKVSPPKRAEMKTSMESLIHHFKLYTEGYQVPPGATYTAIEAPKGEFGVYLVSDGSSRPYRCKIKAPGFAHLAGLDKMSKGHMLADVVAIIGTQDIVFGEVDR
Sequence of isolated bovine heart complex I (P03898 whole entry): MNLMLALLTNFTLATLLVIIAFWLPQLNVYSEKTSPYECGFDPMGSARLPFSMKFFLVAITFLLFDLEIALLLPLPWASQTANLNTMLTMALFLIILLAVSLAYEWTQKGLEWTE
Sequence of isolated bovine heart complex I (P03887 whole entry): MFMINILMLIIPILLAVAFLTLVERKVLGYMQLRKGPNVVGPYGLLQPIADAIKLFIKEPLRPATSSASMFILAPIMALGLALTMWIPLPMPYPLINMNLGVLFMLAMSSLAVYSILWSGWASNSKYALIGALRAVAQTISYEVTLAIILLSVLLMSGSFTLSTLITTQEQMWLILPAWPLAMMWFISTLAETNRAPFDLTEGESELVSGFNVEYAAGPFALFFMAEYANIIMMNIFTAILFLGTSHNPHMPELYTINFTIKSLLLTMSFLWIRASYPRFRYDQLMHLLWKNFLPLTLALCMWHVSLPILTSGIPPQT
Outline: (§1)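 Spectrophotometric NADH oxidation (ε340–380 4.81 mM^−1 cm^−1) at 32 °C. Membranes at 5 μg mL^−1 in 10 mM Tris-HCl pH 7.4, 250 mM sucrose, 200 μM NADH, 0.15 mM cytochrome c; purified complex I at 0.5 μg mL^−1 in 20 mM Tris-HCl pH 7.2, 0.15 % asolectin/CHAPS, 200 μM each decylubiquinone and NADH. IC50 from dose-effect fit, Hill slope fixed at 1 for purified enzyme.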

[2] = biological target: bovine heart mitochondrial membranes (complex I) (Bos taurus, UniProt P03887+P03898+P17694+P42026); test: NADH:O2 oxidoreduction by bovine heart mitochondrial membranes (complexes I-III-IV); type: biochemical; conditions: for LogIC50 (best fit value): log of concentration in mM; for LogIC50 (best fit value) / IC50 / HillSlope (best fit value): sample given as Bovine heart mitochondrial membranes, Bottom 0, Top 100; for LogIC50 (best fit value) / HillSlope (best fit value): Prism variable slope fit; for IC50: Prism log(inhibitor) vs. response variable slope fit (four parameters), read-out: IC50 (best fit value)
Sequence of bovine heart mitochondrial membranes (complex I) (P42026 38-216): as the sequence (P42026 38-216) above
Sequence of bovine heart mitochondrial membranes (complex I) (P17694 34-463): as the sequence (P17694 34-463) above
Sequence of bovine heart mitochondrial membranes (complex I) (P03887 whole entry): as the sequence (P03887 whole entry) above
Sequence of bovine heart mitochondrial membranes (complex I) (P03898 whole entry): as the sequence (P03898 whole entry) above
Outline: as §1

[3] = tested on: bovine mitochondrial membranes (complexes II-III-IV); test: Succinate:O2 oxidoreduction (complexes II-III-IV, complex II assay) by bovine mitochondrial membranes; type: biochemical, Bos taurus; conditions: biguanide concentrations set to the IC50 values for NADH:O2 on bovine membranes; control = 100.00; n = 3
Outline: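 Membranes at 40 μg mL^−1 with 5 mM succinate in 10 mM Tris-HCl pH 7.4, read in a plate reader at 32 °C. Controls carried NaCl to match ionic strength or DMSO.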

[4] = Octanol/PBS partition coefficient, shake-flask method; type: physicochemical; conditions: 32 °C, pH 7.4, n = 3
Procedure: Octanol/PBS partition coefficients were measured by the shake-flask method at 32 °C, pH 7.4.

143B cells = test: Rotenone-sensitive oxygen consumption rate in intact 143B cells; type: cell-based, human; conditions: for rotenone sensitive OCR after 6 hours of biguanide exposure, % control, average / rotenone sensitive OCR after 6 hours of biguanide exposure, average: biguanide at IC50/10; for rotenone sensitive OCR after 6 hours of biguanide exposure, average: OCR normalized to OCR immediately prior to biguanide addition; for inhibition of rotenone-sensitive respiration (in words): intact 143B cells, biguanide at IC50/10, monitored for 6 h
Outline: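 Intact 143B, HepG2 and MDBK cells were measured on a Seahorse XF96 at 37 °C in DMEM-based buffer (glucose, 1 mM pyruvate, 20 mM HEPES, pH 7.4). Biguanides were added at IC50/10 and followed ~6 h, then rotenone (2 μM). The rotenone-insensitive rate was subtracted, OCR was normalized to the pre-biguanide value, and uptake rate was taken relative to time-matched controls.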

AMPK-α (phospho-Thr172) = test: AMPK activation, western blot of phospho-AMPK-α in MDBK cells; type: cell-based, Bos taurus; conditions: for p-alpha, average normalised to control: Averages of experiments 1-3, 18 hours; for p-alpha: band intensity
Outline: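 MDBK cells in DMEM/10% FBS harvested after 18 h and lysed in ice-cold HEPES/Triton buffer containing NaF and pyrophosphate. Lysates (20 μg protein/lane) resolved on 3–12% bis-Tris gels and blotted with anti-phospho-AMPK-α Thr172 or anti-phospho-ACC Ser79 (1:1000, overnight, 4 °C). Detection by fluorescent secondary antibody and infrared imaging.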

SMILES | HillSlope (best fit value) [1] | IC50 [1] [mM] | LogIC50 (best fit value) [1] | LogIC50 (best fit value) [2] | IC50 [2] [mM] | HillSlope (best fit value) [2] | Complex II assay (succinate:O2 oxidoreduction), average [3] | P (partition coefficient) [4] | logP [4] | rotenone sensitive OCR after 6 hours of biguanide exposure, % control, average (143B cells; 143B cells) [% control] | rotenone sensitive OCR after 6 hours of biguanide exposure, average (143B cells; 143B cells) | inhibition of rotenone-sensitive respiration (in words) (143B cells) | p-alpha, average normalised to control (AMPK-α (phospho-Thr172)) | p-alpha / AMPK beta (AMPK-α (phospho-Thr172); Experiment 1, 18 hours) | p-alpha / AMPK beta normalised to control (AMPK-α (phospho-Thr172); Experiment 1, 18 hours) | p-alpha (AMPK-α (phospho-Thr172); Experiment 1, 18 hours) | p-alpha / AMPK beta (AMPK-α (phospho-Thr172); Experiment 2, 18 hours) | p-alpha / AMPK beta normalised to control (AMPK-α (phospho-Thr172); Experiment 2, 18 hours) | p-alpha (AMPK-α (phospho-Thr172); Experiment 2, 18 hours) | p-alpha / AMPK beta (AMPK-α (phospho-Thr172); Experiment 3, 18 hours) | other results
CC(C)N=C(N)N=C(N)N [compound 4, 1-(diaminomethylidene)-2-(propan-2-yl)guanidine] | 1 | 6.76 | 0.8297 | 1.46 | 28.8 | -1.156 | 101.59 | 0.061 | -1.21 | 0.91 | 1.07 | inhibit respiration | 12.85 | 1.65 | 13.27 | 732 | 1.91 | 13.08 | 500 | 2.53 | remaining activity at 620 µM ([1]; inhibitor 0.62 mM, read-out: average % (rate, % of no-inhibitor control)): 88.4%; remaining activity at 1560 µM ([1]; inhibitor 1.56 mM, read-out: average % (rate, % of no-inhibitor control)): 84.5%; remaining activity at 3000 µM ([1]; inhibitor 3.00 mM, read-out: average % (rate, % of no-inhibitor control)): 70.3%; remaining activity at 5800 µM ([1]; inhibitor 5.80 mM, read-out: average % (rate, % of no-inhibitor control)): 54.5%; remaining activity at 15620 µM ([1]; inhibitor 15.62 mM, read-out: average % (rate, % of no-inhibitor control)): 30.1%; remaining activity at 31250 µM ([1]; inhibitor 31.25 mM, read-out: average % (rate, % of no-inhibitor control)): 16.1%; remaining activity at 62500 µM ([1]; inhibitor 62.50 mM, read-out: average % (rate, % of no-inhibitor control)): 5.52%; remaining activity at 620 µM ([2]; bovine heart mitochondrial membranes, inhibitor 0.62 mM, read-out: average % (rate, % of no-inhibitor control)): 96.7%; remaining activity at 1560 µM ([2]; bovine heart mitochondrial membranes, inhibitor 1.56 mM, read-out: average % (rate, % of no-inhibitor control)): 95.7%; remaining activity at 3120 µM ([2]; bovine heart mitochondrial membranes, inhibitor 3.12 mM, read-out: average % (rate, % of no-inhibitor control)): 92.6%; remaining activity at 6250 µM ([2]; bovine heart mitochondrial membranes, inhibitor 6.25 mM, read-out: average % (rate, % of no-inhibitor control)): 84.6%; remaining activity at 12500 µM ([2]; bovine heart mitochondrial membranes, inhibitor 12.50 mM, read-out: average % (rate, % of no-inhibitor control)): 72.6%; remaining activity at 25000 µM ([2]; bovine heart mitochondrial membranes, inhibitor 25.00 mM, read-out: average % (rate, % of no-inhibitor control)): 56.6%; remaining activity at 50000 µM ([2]; bovine heart mitochondrial membranes, inhibitor 50.00 mM, read-out: average % (rate, % of no-inhibitor control)): 32.5%; estimated rate of uptake into mitochondria (143B cells; 143B cells, 3 mM in the extracellular medium): > 1.5 mM/min; p-alpha / AMPK beta normalised to control (AMPK-α (phospho-Thr172); Experiment 3, 18 hours): 12.19; p-alpha (AMPK-α (phospho-Thr172); Experiment 3, 18 hours): 499
CC(C)N=C(N)N=C(N)NC(C)C [compound 5, N-(propan-2-yl)-1-3-(propan-2-yl)carbamimidamidomethanimidamide] | 1 | 0.246 | -0.609 | -0.4916 | 0.322 | -0.7631 | 100.71 | 3.371 | 0.528 | 102.76 | 120.45 | do not | 1.21 | 0.13 | 1.05 | 62.5 | 0.17 | 1.19 | 52.5 | 0.29 | remaining activity at 50 µM ([1]; inhibitor 0.05 mM, read-out: average % (rate, % of no-inhibitor control)): 79.4%; remaining activity at 100 µM ([1]; inhibitor 0.10 mM, read-out: average % (rate, % of no-inhibitor control)): 70.7%; remaining activity at 200 µM ([1]; inhibitor 0.20 mM, read-out: average % (rate, % of no-inhibitor control)): 55.4%; remaining activity at 400 µM ([1]; inhibitor 0.40 mM, read-out: average % (rate, % of no-inhibitor control)): 37.9%; remaining activity at 1000 µM ([1]; inhibitor 1.00 mM, read-out: average % (rate, % of no-inhibitor control)): 20.8%; remaining activity at 2000 µM ([1]; inhibitor 2.00 mM, read-out: average % (rate, % of no-inhibitor control)): 12.9%; remaining activity at 4000 µM ([1]; inhibitor 4.00 mM, read-out: average % (rate, % of no-inhibitor control)): 9.93%; remaining activity at 25 µM ([2]; bovine heart mitochondrial membranes, inhibitor 0.025 mM, read-out: average % (rate, % of no-inhibitor control)): 88.2%; remaining activity at 50 µM ([2]; bovine heart mitochondrial membranes, inhibitor 0.05 mM, read-out: average % (rate, % of no-inhibitor control)): 80.7%; remaining activity at 120 µM ([2]; bovine heart mitochondrial membranes, inhibitor 0.12 mM, read-out: average % (rate, % of no-inhibitor control)): 67.1%; remaining activity at 250 µM ([2]; bovine heart mitochondrial membranes, inhibitor 0.25 mM, read-out: average % (rate, % of no-inhibitor control)): 53.5%; remaining activity at 500 µM ([2]; bovine heart mitochondrial membranes, inhibitor 0.50 mM, read-out: average % (rate, % of no-inhibitor control)): 42.4%; remaining activity at 1000 µM ([2]; bovine heart mitochondrial membranes, inhibitor 1.00 mM, read-out: average % (rate, % of no-inhibitor control)): 30.7%; remaining activity at 2000 µM ([2]; bovine heart mitochondrial membranes, inhibitor 2.00 mM, read-out: average % (rate, % of no-inhibitor control)): 19.2%; p-alpha / AMPK beta normalised to control (AMPK-α (phospho-Thr172); Experiment 3, 18 hours): 1.38; p-alpha (AMPK-α (phospho-Thr172); Experiment 3, 18 hours): 51.1
